Results as given in ChEMBL document CHEMBL1123212 (J Med Chem, 1986).

Tests used:
[1] = species on record: Rattus norvegicus; experiment: animal or person
Description: In vivo inhibition of apomorphine induced stereotypy in rats.

[2] = species on record: Rattus norvegicus; experiment: animal or person; remark: listed apart in the source
Description: In vivo inhibition of apomorphine induced hyperactivity in rats.

[3] = in vivo; details: rat, ip
Description: Compound was tested for its acute toxicity in rat after ip administration

[4] = tested on: Rattus norvegicus; experiment: Compound was tested for anti-dopamine activity in vivo by its ability to inhibit apomorphine induced hyperactivity in rat; format: functional
[5] = tested on: Rattus norvegicus; experiment: Compound was tested for anti-dopamine activity in vivo by its ability to inhibit apomorphine induced stereotypy in rat; format: functional

Row | SMILES | ED50 [1] | ED50 [2] | LD50 [3] | ED50 [4] | ED50 [5]
1 | CCCc1cc(Cl)c(OC)c(C(=O)NC[C@@H]2CCCN2CC)c1O | 0.35 µmol/kg | 0.1 µmol/kg | – | – | –
2 | CCc1cc(CC)c(OC)c(C(=O)NC[C@@H]2CCCN2CC)c1O | 0.46 µmol/kg | 0.076 µmol/kg | 530 µmol/kg | – | –
3 | CCN1CCC[C@@H]1CNC(=O)c1c(O)c(Cl)cc(Cl)c1OC | 32 µmol/kg | 1.07 µmol/kg | – | – | –
4 | CCc1cc(Cl)c(OC)c(C(=O)NC[C@@H]2CCCN2CC)c1O [ETICLOPRIDE] | 0.19 µmol/kg | 0.032 µmol/kg | 330 µmol/kg | – | –
5 | CCN1CCC[C@H]1CNC(=O)c1cc(Br)cc(Br)c1OC | 2.69 µmol/kg | 0.66 µmol/kg | – | – | –
6 | CCc1ccc(OC)c(C(=O)NC[C@@H]2CCCN2CC)c1O | 0.28 µmol/kg | 0.12 µmol/kg | 370 µmol/kg | – | –
7 | CCc1cc(Br)c(O)c(C(=O)NC[C@@H]2CCCN2CC)c1OC | 1.45 µmol/kg | 0.87 µmol/kg | – | – | –
8 | CCN1CCC[C@H]1CNC(=O)c1c(O)c(C)cc(C)c1OC | 3.1 µmol/kg | 1.86 µmol/kg | – | – | –
9 | CCc1cc(F)c(OC)c(C(=O)NC[C@@H]2CCCN2CC)c1O | 0.31 µmol/kg | 0.065 µmol/kg | – | – | –
10 | CCc1cc(Cl)c(O)c(C(=O)NC[C@@H]2CCCN2CC)c1OC | 1.51 µmol/kg | 2.5 µmol/kg | – | – | –
11 | O=C(CCCN1CCC(O)(c2ccc(Cl)cc2)CC1)c1ccc(F)cc1 [HALOPERIDOL] | – | – | 93 µmol/kg | 0.29 µmol/kg | 0.27 µmol/kg
12 | CCc1cc(Br)c(OC)c(C(=O)NC[C@@H]2CCCN2CC)c1O | 0.47 µmol/kg | 0.085 µmol/kg | 320 µmol/kg | – | –
13 | CCN1CCC[C@H]1CNC(=O)c1cc(Br)cc(Br)c1O | > 40 µmol/kg | 28 µmol/kg | – | – | –
14 | CCN1CCC[C@H]1CNC(=O)c1c(O)c(C)cc(Cl)c1OC | 1.32 µmol/kg | 0.74 µmol/kg | – | – | –
15 | CCN1CCC[C@H]1CNC(=O)c1c(O)c(Br)cc(Br)c1OC | 1.48 µmol/kg | 0.65 µmol/kg | 450 µmol/kg | – | –
16 | CCN1CCC[C@H]1CNC(=O)c1c(O)c(Br)cc(Cl)c1OC | 1.35 µmol/kg | 0.95 µmol/kg | – | – | –
17 | CCN1CCC[C@H]1CNC(=O)c1c(O)c(Br)cc(F)c1OC | 0.42 µmol/kg | 0.16 µmol/kg | – | – | –
18 | CCN1CCC[C@H]1CNC(=O)c1c(O)c(Cl)cc(Cl)c1OC [RACLOPRIDE] | 1.7 µmol/kg | 0.13 µmol/kg | 660 µmol/kg | – | –
